Results taken from US8022203B2, “Amino derivatives of beta-homoandrostanes and beta-heteroandrostanes” (Sigma-Tau Industrie Farmaceutiche Riunite S.p.A., priority 2006, dated 2011).
Counter-ions that a name gives are not always drawn.

Legend:
Na^+,K^+-ATPase = Na^+,K^+-ATPase (Canis lupus familiaris, UniProt P50997); assay: Dog kidney Na+,K+-ATPase inhibition (hydrolysis of 32P-ATP); type: biochemical; conditions: Na^+,K^+-ATPase Inhibition IC50
[1] = tested on: spontaneous hypertensive rats of the Milan (MHS); assay: Systolic blood pressure fall in spontaneous hypertensive rats (MHS), tail-cuff; type: in vivo, rat; conditions: five weeks, vs vehicle control
[2] = tested on: hypertensive ouabain-sensitive rats (OS rats); assay: Systolic blood pressure fall in hypertensive ouabain-sensitive rats (OS rats), tail-cuff; type: in vivo, rat; conditions: 10 μg/kg/day by mouth, four weeks
Procedure: The ability of these compounds to lower blood pressure was tested by using animal models with genetic arterial hypertension, in particular, spontaneous hypertensive rats of the Milan (MHS) (Bianchi G., Ferrari P., Barber B. The Milan Hypertensive strain. In Handbook of hypertension. Vol. 4: Experimental and genetic models of hypertension. Ed. W. de jong-Elsevier Science Publishers B.V., 1984:328-349) and rats made hypertensive by chronic infusion of ouabain, according to Ferrari P., et al. J. Pharm. Exp. Ther. 1998, 285, 83-94.
The procedure adopted to test the antihypertensive activity of the compounds on the above mentioned model was the following: systolic blood pressure (SBP) and heart rate (HR) were measured by an indirect tail-cuff method.
SBP and HR were measured weekly 6 hours after the treatment.

In the case of `CC12CCC3C(CC(=O)NC4CC(=NOCCN)CCC43C)C1CCC2=O` (stereo not drawn) [I-aa, (E,Z) 3-(2-Aminoethoxyimino)-6-aza-7a-homoandrostane-7,17-dione hydrochloride], the IC50 (Na^+,K^+-ATPase) is reported as 25 µM, the SBP - % ([1]; 0.001 μg/kg/os daily) is reported as 0.0% and the “SBP - mm Hg (decrease in systolic blood pressure)” value ([1]; 0.001 μg/kg/os daily) is reported as 1.0 +/− 1.1 mm Hg. The SBP - % ([1]; 0.01 μg/kg/os daily) was 5.2%, the “SBP - mm Hg (decrease in systolic blood pressure)” value ([1]; 0.01 μg/kg/os daily) was 8.8 +/− 1.6 mm Hg and the SBP - % ([1]; 0.1 μg/kg/os daily) was 6.5%. The “SBP - mm Hg (decrease in systolic blood pressure)” value ([1]; 0.1 μg/kg/os daily) was 11.3 +/− 1.5 mm Hg, the SBP - % ([1]; 1 μg/kg/os daily) was 6.0% and the “SBP - mm Hg (decrease in systolic blood pressure)” value ([1]; 1 μg/kg/os daily) was 10.0 +/− 2.1 mm Hg. The SBP - % ([1]; 10 μg/kg/os daily) was 7.1%, the “SBP - mm Hg (decrease in systolic blood pressure)” value ([1]; 10 μg/kg/os daily) was 12.3 +/− 1.1 mm Hg and the SBP - % [2] was 10.0%. The “SBP - mm Hg (fall)” value [2] was 17.0 mm Hg and the “SBP mm Hg” value [2] was 153.0 mm Hg.

In the case of `CC12CCC3C(CCN(C=O)C4CC(=NOC5CCNC5)CCC34C)C1CCC2=O` [I-ap, (E,Z) 3-[3-(R)-Pyrrolidinyl]oxyimino-6-aza-6-formyl-7a-homoandrostane-17-one hydrochloride], the IC50 (Na^+,K^+-ATPase) is reported as 35 µM, the SBP - % [2] is reported as 9.4% and the “SBP - mm Hg (fall)” value [2] is reported as 15.0 mm Hg. The “SBP mm Hg” value [2] was 154.0 mm Hg.
